According to BindingDB's records for patent US12459916 (Bayer Pharma Aktiengesellschaft, 2025):

Molecular target: T1, Interleukin-1 receptor-associated kinase 4 (UniProt A0A8C0TG75)
T1 sequence (A0A8C0TG75 whole entry): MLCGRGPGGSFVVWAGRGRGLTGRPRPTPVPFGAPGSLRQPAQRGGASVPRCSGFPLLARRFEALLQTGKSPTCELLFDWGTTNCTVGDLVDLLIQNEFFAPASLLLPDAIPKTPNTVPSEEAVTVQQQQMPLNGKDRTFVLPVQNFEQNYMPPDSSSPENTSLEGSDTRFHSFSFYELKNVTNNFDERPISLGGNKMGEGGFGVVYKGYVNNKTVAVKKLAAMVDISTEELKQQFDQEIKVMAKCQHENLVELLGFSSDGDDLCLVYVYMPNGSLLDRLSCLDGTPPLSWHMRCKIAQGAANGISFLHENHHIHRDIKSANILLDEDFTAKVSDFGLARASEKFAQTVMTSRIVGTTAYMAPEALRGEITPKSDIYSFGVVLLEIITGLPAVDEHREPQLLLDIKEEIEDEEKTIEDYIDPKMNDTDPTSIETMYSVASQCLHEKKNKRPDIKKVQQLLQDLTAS
Experiment: Canine IRAK4 Kinase Assay
Experimental: 50 nl of the respective solution were pipetted into a black low-volume 384-well microtitre plate (Greiner Bio-One, Frickenhausen, Germany), 2 μl of a solution of Irak4 in assay buffer [50 mM HEPES pH 7.5, 5 mM MgCl2, 1.0 mM dithiothreitol, 30 μM activated sodium orthovanadate, 0.1% (w/v) of bovine gamma-globulin (BGG) 0.04% (v/v) nonidet-P40 (Sigma)] were added and the mixture was incubated for 15 min to allow prebinding of the substances to the enzyme prior to the kinase reaction. […] The concentration of the Irak4 was adjusted to the respective activity of the enzyme and set such that the assay was carried out in the linear range. Typical concentrations were in the order of about 0.1 nM.

SMILES | IC50 [nM]
CC(C)(O)CCn1cc2cc(NC(=O)c3cccc(C(F)F)n3)c(C(C)(C)O)cc2n1 [US12459916, Example 13] | 1.75
Cc1nc(C(=O)Nc2cc3cn(CCC(C)(C)O)nc3cc2C(C)(C)O)ccc1F [US12459916, Example 19] | 8.46
